From US7146278B2, “Method of selecting marker molecules for prediction of molecular activity” (Accelrys Software Inc., priority 2001, dated 2006)
Like-named read-outs stand apart in the source and are kept apart here.

How the values were obtained:
serum proteins [1] = conditions: cited from earlier work; for % PB: marker molecules, training set from Goodman & Gilman 9th ed.
[2] = nephrotic syndrome, serum albumin concentrations halved; cited from earlier work
serum proteins [3] = experiment: Percent protein bound in serum (literature % PB data); conditions: binary class: highly protein bound (DTC) or not
Description: Drugs may bind to a variety of components in the blood, including albumin, a1-acid glyciprotein (AAG), lipoproteins, immunoglobulins, sex hormone binding globulins, and erythrocytes. […] Some foreknowledge of the protein binding characteristics of a molecule would help provide a better estimate of the pharmacodynamics and pharmacokinetics of the molecule. […] In addition, hepatic extraction is directly proportional to fu. […] The maximum oral bioavailability is directly related to the hepatic extraction ratio, which is in part dependent upon the fu. Disease states causing significant drop in serum albumin, e.g. nephrotic syndrome, where serum albumin concentrations are halved, cause a corresponding 2-fold decrease in half-life for clofibrate.
Using the principles of predictive model development described herein, a model for classifying compounds as highly protein bound (>90% bound) or not highly protein bound (<90% bound) was created. The model development methods are thus described below using a protein binding model as one example application. The model development methods of the invention may also be applied to the creation of other prediction models, such as models to predict CYP450 metabolism, inhibition, and activation, as well as p-Glycoprotein efflux.
The method next advances to the process block 14 where a reference (“training”) set of molecules is classified according to the property of interest. The larger the training set of molecules is (>50 preferably), the better the method should perform. Preferably each of the molecules in the training set has a known binary classification for the property of interest. […] For illustration, an example training set of ten molecules for a protein binding prediction model may be as follows:
The method next advances to a process block 16, where a subset of the training set of molecules is chosen such that the subset includes the molecules in the training set that have the desired property of interest. In one embodiment, molecules in this subset are referred to as Desired Target Class (“DTC”) molecules.
The above simplified example includes 10 training dataset molecules. […] The following compounds were excluded because they lacked % PB values or belonged to an unusual structural class: atracurium, auranofin, azathioprine, bleomycin, bretylium, busulfan, capreomycin, carboplatin, carmustine, cisplatin, clemastine, dobutamine, enoxacin, ethanol, foscarnet, gold sodium thiomalate, isosorbide-5-mononitrate, isosorbide dinitrate, levodopa, levonorgestrel, methohexital, methylprednisolone, nalbuphine, naloxone, neostigmine, nitroglycerin, pancuronium, pipecuronium, prednisolone, prednisone, pyridostigmine, scopolamine, tubocurarine, vecuronium.
A test dataset was also assembled to verify model performance.

[4] = target: Human serum albumin (HSA) (Homo sapiens, UniProt P02768); conditions: site I warfarin site, site II benzodiazepines/NSAIDS site; cited from earlier work
[5] = example training set of ten molecules
[6] = training set (Goodman & Gilman) or PDR test set

Human serum albumin (HSA), sequence (P02768 25-609): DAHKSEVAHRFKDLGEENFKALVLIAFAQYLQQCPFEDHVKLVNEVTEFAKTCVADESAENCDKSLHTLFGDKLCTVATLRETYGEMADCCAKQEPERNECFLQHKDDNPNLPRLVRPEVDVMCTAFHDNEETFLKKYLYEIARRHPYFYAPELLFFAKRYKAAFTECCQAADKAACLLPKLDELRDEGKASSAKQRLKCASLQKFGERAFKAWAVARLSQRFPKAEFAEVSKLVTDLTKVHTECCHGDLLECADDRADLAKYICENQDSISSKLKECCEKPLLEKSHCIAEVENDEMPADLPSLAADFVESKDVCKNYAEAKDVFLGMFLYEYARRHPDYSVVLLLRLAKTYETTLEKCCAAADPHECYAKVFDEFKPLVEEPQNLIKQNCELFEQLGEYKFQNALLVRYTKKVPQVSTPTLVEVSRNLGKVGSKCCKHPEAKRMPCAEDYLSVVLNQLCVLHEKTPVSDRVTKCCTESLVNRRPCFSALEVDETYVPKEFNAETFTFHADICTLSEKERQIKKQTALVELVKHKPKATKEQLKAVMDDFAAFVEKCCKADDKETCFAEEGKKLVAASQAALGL

| SMILES | % PB (serum proteins [1]) [%] | other results |
| --- | --- | --- |
| CC1=C(CC(=O)O)c2cc(F)ccc2/C1=C\c1ccc([S+](C)[O-])cc1 (stereo not shown) | 94 | – |
| CCOC(=O)C1=C(COCCN)NC(C)=C(C(=O)OC)C1c1ccccc1Cl (stereo not shown) [AMLODIPINE] | 93 | – |
| CCOC(=O)[C@H](CCc1ccccc1)N[C@H]1CCc2ccccc2N(CC(=O)O)C1=O [BENAZEPRIL] | 97 | – |
| CCCCNc1cc(C(=O)O)cc(S(N)(=O)=O)c1Oc1ccccc1 [BUMETANIDE] | 99 | – |
| CCOC(=O)C(C)(C)Oc1ccc(Cl)cc1 [CLOFIBRATE] | 96.5 | decrease in half-life [2]: 2 fold |
| Clc1cccc(Cl)c1N=C1NCCN1 [CLONIDINE] | – | % Protein Bound (serum proteins [1]; [5]): 30.0%; Classification (serum proteins [3]): 0 (not highly protein bound (<90% bound)) |
| O=C(O)C1N=C(c2ccccc2)c2cc(Cl)ccc2NC1=O (stereo not shown) [CLORAZEPATE] | 96.9 | – |
| CN1C(=O)CN=C(c2ccccc2)c2cc(Cl)ccc21 [DIAZEPAM] | – | Classification (serum proteins [3]): 1 (highly protein bound (>90% bound)) |
| O=C(O)c1cc(-c2ccc(F)cc2F)ccc1O [DIFLUNISAL] | 99.9 | – |
| CCc1cccc2c3c([nH]c12)C(CC)(CC(=O)O)OCC3 (stereo not shown) [ETODOLAC] | 99.1 | – |
| CCOC(=O)C1=C(C)NC(C)=C(C(=O)OC)C1c1cccc(Cl)c1Cl (stereo not shown) [FELODIPINE] | 99.6 | – |
| CCN(CC)CCN1C(=O)CN=C(c2ccccc2F)c2cc(Cl)ccc21 [FLURAZEPAM] | 96.6 | – |
| CC(C(=O)O)c1ccc(-c2ccccc2)c(F)c1 (stereo not shown) [FLURBIPROFEN] | 99.5 | % Protein Bound (serum proteins [1]; [5]): 99.5%; Classification (serum proteins [3]): 1 (highly protein bound (>90% bound)) |
| NS(=O)(=O)c1cc(C(=O)O)c(NCc2ccco2)cc1Cl [FUROSEMIDE] | 98.8 | – |
| Cc1cnc(C(=O)NCCc2ccc(S(=O)(=O)NC(=O)NC3CCCCC3)cc2)cn1 [GLIPIZIDE] | 98.4 | – |
| COc1ccc(Cl)cc1C(=O)NCCc1ccc(S(=O)(=O)NC(=O)NC2CCCCC2)cc1 [GLYBURIDE] | 99.8 | – |
| NS(=O)(=O)c1cc2c(cc1Cl)NCNS2(=O)=O [HYDROCHLOROTHIAZIDE] | – | % Protein Bound (serum proteins [1]; [5]): 58.0%; Classification (serum proteins [3]): 0 (not highly protein bound (<90% bound)) |
| CN(C)CCCN1c2ccccc2CCc2ccccc21 [IMIPRAMINE] | 90.1 | – |
| COC(=O)C1=C(C)NC(C)=C(C(=O)OC(C)C)C1c1cccc2nonc12 (stereo not shown) [ISRADIPINE] | 97 | – |
| CCC(C)n1ncn(-c2ccc(N3CCN(c4ccc(OCC5COC(Cn6cncn6)(c6ccc(Cl)cc6Cl)O5)cc4)CC3)cc2)c1=O (stereo not shown) [ITRACONAZOLE] | 99.8 | – |
| CC(=O)N1CCN(c2ccc(OCC3COC(Cn4ccnc4)(c4ccc(Cl)cc4Cl)O3)cc2)CC1 (stereo not shown) [KETOCONAZOLE] | 99 | – |
| O=C(c1ccccc1)c1ccc2n1CCC2C(=O)O (stereo not shown) [KETOROLAC] | 99.2 | – |
| NCCCC[C@H](N[C@@H](CCc1ccccc1)C(=O)O)C(=O)N1CCC[C@H]1C(=O)O [LISINOPRIL] | – | Classification (serum proteins [3]): 0 (not highly protein bound (<90% bound)) |
| O=C1Nc2ccc(Cl)cc2C(c2ccccc2Cl)=NC1O (stereo not shown) [LORAZEPAM] | 91 | – |

| SMILES | % PB (serum proteins [1]) [%] | other results |
| --- | --- | --- |
| CN(C)c1ccc(O)c2c1C[C@H]1C[C@H]3[C@H](N(C)C)C(O)=C(C(N)=O)C(=O)[C@@]3(O)C(O)=C1C2=O [MINOCYCLINE] | – | % Protein Bound (serum proteins [1]; [5]): 76.0%; Classification (serum proteins [3]): 0 (not highly protein bound (<90% bound)) |
| COc1ccc2cc(CCC(C)=O)ccc2c1 [NABUMETONE] | 99 | – |
| COc1ccc2cc([C@H](C)C(=O)O)ccc2c1 [NAPROXEN] | – | Classification (serum proteins [3]): 1 (highly protein bound (>90% bound)) |
| COC(=O)C1=C(C)NC(C)=C(C(=O)OCCN(C)Cc2ccccc2)C1c1cccc([N+](=O)[O-])c1 (stereo not shown) [NICARDIPINE] | 99 | – |
| COCCOC(=O)C1=C(C)NC(C)=C(C(=O)OC(C)C)C1c1cccc([N+](=O)[O-])c1 (stereo not shown) [NIMODIPINE] | 98 | – |
| CCOC(=O)C1=C(C)NC(C)=C(C(=O)OC)C1c1cccc([N+](=O)[O-])c1 (stereo not shown) [NITRENDIPINE] | 98 | – |
| O=C1CN=C(c2ccccc2)c2cc(Cl)ccc2N1 [NORDAZEPAM] | 97.5 | – |
| O=C1Nc2ccc(Cl)cc2C(c2ccccc2)=NC1O (stereo not shown) [OXAZEPAM] | 98.8 | – |
| Fc1ccc([C@@H]2CCNC[C@H]2COc2ccc3c(c2)OCO3)cc1 [PAROXETINE] | 95 | % Protein Bound (serum proteins [1]; [6]): 95% |
| O=c1[nH]c2ccccc2n1C1CCN(CCCC(c2ccc(F)cc2)c2ccc(F)cc2)CC1 [PIMOZIDE] | 99 | – |
| CN1C(C(=O)Nc2ccccn2)=C(O)c2ccccc2S1(=O)=O [PIROXICAM] | 98.5 | – |
| O=C1CN=C(c2ccccc2)c2cc(Cl)ccc2N1CC1CC1 [PRAZEPAM] | 95.5 | – |
| CNCCCC1c2ccccc2C=Cc2ccccc21 [PROTRIPTYLINE] | 92 | – |
| CCc1nc(N)nc(N)c1-c1ccc(Cl)cc1 [PYRIMETHAMINE] | – | % Protein Bound (serum proteins [1]; [5]): 87.0%; % Protein Bound (serum proteins [1]; [6]): 87%; Classification (serum proteins [3]): 0 (not highly protein bound (<90% bound)) |
| CC(N)C12CC3CC(CC(C3)C1)C2 (stereo not shown) [RIMANTADINE] | – | % Protein Bound (serum proteins [1]; [5]): 40.0%; Classification (serum proteins [3]): 0 (not highly protein bound (<90% bound)) |
| CC(C(=O)O)c1ccc(C(=O)c2cccs2)cc1 (stereo not shown) [Suprofen] | – | HSA binding site [4]: binds to HSA site II |
| CN1C(=O)C(O)N=C(c2ccccc2)c2cc(Cl)ccc21 (stereo not shown) [TEMAZEPAM] | 97.6 | – |
| Cc1ccc(C(=O)c2ccc(CC(=O)O)n2C)cc1 [TOLMETIN] | 99.6 | – |
| O=c1n(CCCN2CCN(c3cccc(Cl)c3)CC2)nc2ccccn12 [TRAZODONE] | 93 | – |
| CCCC(CCC)C(=O)O [Valproic acid] | – | HSA binding site [4]: bind to both HSA Sites I and II |
| CC(=O)CC(c1ccccc1)c1c(O)c2ccccc2oc1=O (stereo not shown) [WARFARIN] | – | Classification (serum proteins [3]): 1 (highly protein bound (>90% bound)) |
| Cc1ccc(-c2nc3ccc(C)cn3c2CC(=O)N(C)C)cc1 [ZOLPIDEM] | 92 | – |
| COC(=O)[C@H](c1ccccc1Cl)N1CCc2sccc2C1 [clopidogrel] | – | % Protein Bound (serum proteins [1]; [6]): 98% |
| COC(=O)C(C)c1ccc(C(=O)c2cccs2)cc1 (stereo not shown) [suprofen methyl ester] | – | HSA binding site [4]: binds to HSA site I |
